# US9309200B2, “Benzazepine derivatives, pharmaceutical compositions containing them, and their use in therapy” (AbbVie Deutschland GmbH & Co. KG, priority 2011, dated 2016)
# Structures can show the parent of a compound that is named as a salt.
# Target: T1, human GlyT1c transporter (Homo sapiens, UniProt P48067)
# T1 construct: expressed in transfected cells; host or cells: recombinant CHO cells (membranes); the uptake assay names the line hGlyT1c_5_CHO
# T1 sequence (P48067 1-706): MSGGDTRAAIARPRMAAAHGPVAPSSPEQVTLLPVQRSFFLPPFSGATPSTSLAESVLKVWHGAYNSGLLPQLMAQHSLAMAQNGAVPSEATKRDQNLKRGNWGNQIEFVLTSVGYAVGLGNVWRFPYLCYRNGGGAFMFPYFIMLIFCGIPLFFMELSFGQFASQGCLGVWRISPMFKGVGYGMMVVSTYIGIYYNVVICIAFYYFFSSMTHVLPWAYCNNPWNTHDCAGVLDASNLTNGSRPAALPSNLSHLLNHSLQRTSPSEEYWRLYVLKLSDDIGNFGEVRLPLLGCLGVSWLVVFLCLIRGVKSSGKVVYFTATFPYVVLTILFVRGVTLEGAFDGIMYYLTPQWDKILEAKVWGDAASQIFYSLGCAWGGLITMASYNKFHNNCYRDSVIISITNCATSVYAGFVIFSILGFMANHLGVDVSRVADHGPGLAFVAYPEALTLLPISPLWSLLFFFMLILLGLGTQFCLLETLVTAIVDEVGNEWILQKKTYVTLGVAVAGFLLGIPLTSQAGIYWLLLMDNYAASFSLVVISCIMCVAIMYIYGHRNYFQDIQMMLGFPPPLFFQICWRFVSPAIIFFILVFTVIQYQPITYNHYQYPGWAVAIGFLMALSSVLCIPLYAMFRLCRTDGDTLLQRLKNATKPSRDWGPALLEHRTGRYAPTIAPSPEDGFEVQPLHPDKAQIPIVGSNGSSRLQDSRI
# Assay: Radioligand binding assay using recombinant CHO cell membranes expressing human GlyT1
# Details: read-out: radioligand binding Kiapp
# Protocol: 2. Radioligand Binding Assays Using Recombinant CHO Cell Membranes Expressing Human GlyT1:
# Radioligand binding to human GlyT1c transporter-expressing membranes was determined as described in Mezler et al., Molecular Pharmacology 74:1705-1715, 2008.
row,SMILES,Ki [nM]
1,"COc1ccc2c(c1)C(Cc1ccccc1)NCCC2 (stereo not drawn) [Example 1, 1-Benzyl-8-methoxy-2,3,4,5-tetrahydro-1H-benzo[c]azepine]",> 10000
2,"COc1ccc2c(c1)C(C1(c3ccc(Cl)cc3)CCC1)NCCO2 (stereo not drawn) [Example 5, 5-(1-(4-Chlorophenyl)cyclobutyl)-7-methoxy-2,3,4,5-tetrahydrobenzo[f][1,4]oxazepine hydrochloride]",≤ 10000
3,"CCCS(=O)(=O)NCCOc1ccc2c(c1)C(Cc1ccc(Cl)cc1)NCCC2 (stereo not drawn) [Example 8, Propane-1-sulfonic acid {2-[1-(4-chlorobenzyl)-2,3,4,5-tetrahydro-1H-benzo[c]azepin-8-yloxy]-ethyl}-amide]",≤ 1000
4,"CCS(=O)(=O)NCCOc1ccc2c(c1)C(Cc1ccc(Cl)cc1)NCCC2 (stereo not drawn) [Example 9, Ethanesulfonic acid {2-[1-(4-chlorobenzyl)-2,3,4,5-tetrahydro-1H-benzo[c]azepin-8-yloxy]-ethyl}-amide]",≤ 10000
5,"CCS(=O)(=O)NCCOc1ccc2c(c1)C(Cc1ccccc1)NCCC2 (stereo not drawn) [Example 11, Ethanesulfonic acid [2-(1-benzyl-2,3,4,5-tetrahydro-1H-benzo[c]azepin-8-yloxy)-ethyl]-amide]",≤ 1000
6,"O=S(=O)(CC1CC1)NCCOc1ccc2c(c1)C(Cc1ccc(Cl)cc1)NCCC2 (stereo not drawn) [Example 12, N-{2-[1-(4-Chlorobenzyl)-2,3,4,5-tetrahydro-1H-benzo[c]azepin-8-yloxy]-ethyl}-C-cyclopropyl-methanesulfonamide]",≤ 1000
7,"CCCS(=O)(=O)NCc1ccc2c(c1)C(Cc1ccc(Cl)cc1)NCCC2 (stereo not drawn) [Example 14, Propane-1-sulfonic acid [1-(4-chloro-benzyl)-2,3,4,5-tetra-hydro-1H-benzo[c]azepin-8-ylmethyl]-amide]",≤ 1000
8,"O=S(=O)(CC1CC1)NCc1ccc2c(c1)C(Cc1ccc(Cl)cc1)NCCC2 (stereo not drawn) [Example 15, N-[1-(4-Chloro-benzyl)-2,3,4,5-tetrahydro-1H-benzo[c]azepin-8-ylmethyl]-C-cyclopropyl-methanesulfonamide]",≤ 10000
9,"CCS(=O)(=O)NCc1ccc2c(c1)C(Cc1ccc(Cl)cc1)NCCC2 (stereo not drawn) [Example 16, Ethanesulfonic acid [1-(4-chloro-benzyl)-2,3,4,5-tetra-hydro-1H-benzo[c]azepin-8-ylmethyl]-amide]",≤ 10000
10,"O=S(=O)(NCc1ccc2c(c1)C(Cc1ccc(Cl)cc1)NCCC2)C1CCC1 (stereo not drawn) [Example 17, Cyclobutanesulfonic acid [1-(4-chloro-benzyl)-2,3,4,5-tetra-hydro-1H-benzo[c]azepin-8-ylmethyl]-amide]",≤ 1000
11,"Cn1cnc(S(=O)(=O)NCc2ccc3c(c2)C(Cc2ccc(Cl)cc2)NCCC3)c1 (stereo not drawn) [Example 18, 1-Methyl-1H-imidazole-4-sulfonic acid [1-(4-chloro-benzyl)-2,3,4,5-tetrahydro-1H-benzo-[c]azepin-8-ylmethyl]-amide]",≤ 1000
12,"CCCS(=O)(=O)NCCOc1ccc2c(c1)C(Cc1cccc(F)c1)NCCC2 (stereo not drawn) [Example 23, Propane-1-sulfonic acid {2-[1-(3-fluoro-benzyl)-2,3,4,5-tetrahydro-1H-benzo[c]azepin-8-yloxy]-ethyl}-amide]",≤ 100
13,"O=S(=O)(CC1CC1)NCCOc1ccc2c(c1)C(Cc1cccc(F)c1)NCCC2 (stereo not drawn) [Example 24, C-Cyclopropyl-N-{2-[1-(3-fluoro-benzyl)-2,3,4,5-tetrahydro-1H-benzo[c]azepin-8-yloxy]-ethyl}-methanesulfonamide]",≤ 100
14,"CCS(=O)(=O)NCCOc1ccc2c(c1)C(Cc1cccc(F)c1)NCCC2 (stereo not drawn) [Example 25, Ethanesulfonic acid {2-[1-(3-fluoro-benzyl)-2,3,4,5-tetrahydro-1H-benzo[c]azepin-8-yloxy]-ethyl}-amide]",≤ 1000
15,"CCCS(=O)(=O)NCc1ccc2c(c1)C(Cc1cccc(F)c1)NCCC2 (stereo not drawn) [Example 27, Propane-1-sulfonic acid [1-(3-fluoro-benzyl)-2,3,4,5-tetrahydro-1H-benzo[c]azepin-8-ylmethyl]-amide]",≤ 1000

# The remaining lines, values ahead:
row,Ki [nM],SMILES
1,≤ 100,"Cn1cnc(S(=O)(=O)NCCOc2ccc3c(c2)C(Cc2ccccc2)NCCC3)c1 (stereo not drawn) [Example 2, N-(2-(1-Benzyl-2,3,4,5-tetrahydro-1H-benzo[c]azepin-8-yloxy)ethyl)-1-methyl-1H-imidazole-4-sulfonamide]"
2,≤ 10,"Cn1cc(S(=O)(=O)NCCOc2ccc3c(c2)C(Cc2ccccc2)NCCC3)cn1 (stereo not drawn) [Example 3, N-(2-(1-Benzyl-2,3,4,5-tetrahydro-1H-benzo[c]azepin-8-yloxy)ethyl)-1-methyl-1H-pyrazole-4-sulfonamide]"
3,≤ 100,"O=S(=O)(CC1CC1)NCCOc1ccc2c(c1)C(Cc1ccccc1)NCCC2 (stereo not drawn) [Example 4, N-(2-(1-benzyl-2,3,4,5-tetrahydro-1H-benzo[c]azepin-8-yloxy)ethyl)-1-cyclopropylmethanesulfonamide]"
4,≤ 10,"CN1CCCc2ccc(OCCNS(=O)(=O)c3cn(C)cn3)cc2C1Cc1ccccc1 (stereo not drawn) [Example 6, 1-Methyl-1H-imidazole-4-sulfonic acid [2-(1-benzyl-2-methyl-2,3,4,5-tetrahydro-1H-benzo[c]azepin-8-yloxy)-ethyl]-amide]"
5,≤ 10,"CN1CCCc2ccc(OCCNS(=O)(=O)c3cnn(C)c3)cc2C1Cc1ccccc1 (stereo not drawn) [Example 7, 1-Methyl-1H-pyrazole-4-sulfonic acid [2-(1-benzyl-2-methyl-2,3,4,5-tetrahydro-1H-benzo[c]azepin-8-yloxy)-ethyl]amide]"
6,≤ 100,"CCCS(=O)(=O)NCCOc1ccc2c(c1)C(Cc1ccccc1)NCCC2 (stereo not drawn) [Example 10, Propane-1-sulfonic acid [2-(1-benzyl-2,3,4,5-tetrahydro-1H-benzo[c]azepin-8-yloxy)-ethyl]-amide]"
7,≤ 100,"O=S(=O)(CC1CC1)NCCOc1ccc2c(c1)C(Cc1ccccc1)NCCC2 (stereo not drawn) [Example 13, N-{2-[1-Benzyl-2,3,4,5-tetrahydro-1H-benzo[c]azepin-8-yloxy]-ethyl}-C-cyclopropyl-methanesulfonamide]"
8,≤ 100,"Cn1cc(S(=O)(=O)NCc2ccc3c(c2)C(Cc2ccc(Cl)cc2)NCCC3)cn1 (stereo not drawn) [Example 19, 1-Methyl-1H-pyrazole-4-sulfonic acid [1-(4-chloro-benzyl)-2,3,4,5-tetrahydro-1H-benzo-[c]azepin-8-ylmethyl]-amide]"
9,≤ 10,"Cn1cnc(S(=O)(=O)NCCOc2ccc3c(c2)C(Cc2cccc(F)c2)NCCC3)c1 (stereo not drawn) [Example 20, 1-Methyl-1H-imidazole-4-sulfonic acid {2-[1-(3-fluoro-benzyl)-2,3,4,5-tetrahydro-1H-benzo[c]azepin-8-yloxy]-ethyl}-amide]"
10,≤ 10,"Cn1cc(S(=O)(=O)NCCOc2ccc3c(c2)C(Cc2cccc(F)c2)NCCC3)cn1 (stereo not drawn) [Example 21, 1-Methyl-1H-pyrazole-4-sulfonic acid {2-[1-(3-fluoro-benzyl)-2,3,4,5-tetrahydro-1H-benzo[c]azepin-8-yloxy]-ethyl}-amide]"
11,≤ 10,"Cn1cnc(S(=O)(=O)NCc2ccc3c(c2)C(Cc2cccc(F)c2)NCCC3)c1 (stereo not drawn) [Example 22, 1-Methyl-1H-imidazole-4-sulfonic acid [1-(3-fluoro-benzyl)-2,3,4,5-tetrahydro-1H-benzo[c]azepin-8-ylmethyl]-amide]"
12,≤ 10,"Cn1cc(S(=O)(=O)NCc2ccc3c(c2)C(Cc2cccc(F)c2)NCCC3)cn1 (stereo not drawn) [Example 26, 1-Methyl-1H-pyrazole-4-sulfonic acid [1-(3-fluoro-benzyl)-2,3,4,5-tetrahydro-1H-benzo[c]azepin-8-ylmethyl]-amide]"
